We go through one compound from US11224588B2, “Combination of lipoic acid and taurine as osmoprotective agent” (OPHTALMIS MONACO, priority 2015, dated 2022).

In test [1] the test system is human corneal (HCE) cells. Nature of the test: Cell viability (XTT assay) after hyperosmolar stress, HCE cells. The format is cell-based. The note with it: at 0.005% and 0.001% (w/v), 4 h and 8 h post-stress; FIG. 1. How it is done: A study was carried out to determine the osmoprotective capacity of sodium lipoate (A) during hyperosmolar stress on human conjunctival (WKD) and corneal (HCE) cells. In a second phase, tests were carried out to compare the effect of lipoic acid, glycerin (B), and taurine (C), individually and when the molecules were combined, on HCE cells under hyperosmolar stress conditions. The osmoprotective activity of A, then A with B and C, was evaluated by measuring cell viability in particular. To that end, cells were preincubated for 17 h with the test substance(s). Next, the medium was removed and the cells were subjected to hyperosmolar stress by addition of sodium chloride (100 mM NaCl) to the culture medium (M199 for the WKD cells and KSFM for the HCE cells). Cell-growth control cells were contacted with isotonic medium. Cell viability was analyzed pre-osmotic stress (0 h) in order to measure the effect of the molecules remaining in contact with the cells during the 17 h of incubation, then at 4 h, 8 h and 24 h post-induction of osmotic stress. The cell viability measurement was carried out via an XTT assay. Various concentrations of A were tested for the “molecule alone” tests: 0.0005%, 0.001%, 0.005%, 0.01% and 0.05% w/v. […] To ensure the validity and the significance of the data, the results obtained were analyzed statistically. […]
In general terms: Tetrazolium assays rely on reduction of a dye to a coloured formazan, in cell work by metabolically active cells.

The subject of another test is corneal cells. Nature of the test: Antioxidant effect on corneal cells. The format is cell-based.

In the case of `O=C(O)CCCCC1CCSS1` (centres unmarked) [Sodium Lipoate, 5-(1,2-dithiolan-3-yl)pentanoic acid], the “Osmoprotective activity against osmotic stress” value in test [1] is listed as “high osmoprotective activity”. The Antioxidant effect result in the test with corneal cells was “rather weak”.
